Results: patent US20230374015A1, “INHIBITORS OF FIBROBLAST GROWTH FACTOR RECEPTOR KINASES” (Kinnate Biopharma Inc., priority 2020, published 2023)

Target: FGFR2 (Homo sapiens, UniProt P21802)
Assay: FGFR2 Kinase Protocol - Condition 2 (Reaction Biology HotSpot radiometric kinase assay, no preincubation)
Type: biochemical
Conditions: poly[Glu:Tyr] (4:1) 0.2 mg/ml, ATP 100 microM, 2 hr room temperature
Description: Example 2: FGFR2 Kinase Protocol—Condition 2
The Reaction Biology HotSpot assay platform (http://www.reactionbiology.com) was used to measure kinase/inhibitor interactions as described previously (Anastassiadis et al., 2011). In brief, for each reaction, kinase and substrate were mixed in a buffer containing 20 mM HEPES (pH 7.5), 10 mM MgCl2, 1 mM EGTA, 0.02% Brij35, 0.02 mg/mL BSA, 0.1 mM Na3VO4, 2 mM DTT, and 1% DMSO. All compounds were in powder form and freshly solubilized in DMSO for assays. Compounds were then added to each reaction mixture via acoustic dispense using an ECHO 550 nanoliter dispenser. For Human FGFR2 wildtype testing, a peptide substrate, poly[Glu:Tyr] (4:1) was used to promote the reaction at a concentration of 0.2 mg/ml. For Human FGFR2 (V564F) testing, a peptide substrate, poly[Glu:Tyr] (4:1) was used to promote the reaction at a concentration of 0.2 mg/ml. ATP concentration for all assays was maintained at 100 micromolar. Compounds were tested in 10-dose IC50 mode with a 3-fold serial dilution. Compounds were added to plates and ATP was added directly to the wells. ATP (Sigma-Aldrich, St. Louis, MO 63178) and [g33P] ATP (specific activity 10 microCi/microliter) purchased at PerkinElmer (Boston, MA, 02118 Cat #BLU 003H250UC) were added at a final total concentration of 100 microM to each well with no preincubation. Reactions were carried out at room temperature for 2 hr and spotted onto P81 ion exchange cellulose chromatography paper (Reaction Biology). Filter paper was washed in 0.75% phosphoric acid to remove unincorporated ATP. The percent remaining kinase activity relative to a vehicle-containing (DMSO) kinase reaction was calculated for each kinase/inhibitor pair. IC50 values were calculated using Dotmatics Knowledge Solutions Studies curve fitting (Dotmatics, Bishops Stortford, UK, CM23).

Sequence of FGFR2 (P21802 22-821): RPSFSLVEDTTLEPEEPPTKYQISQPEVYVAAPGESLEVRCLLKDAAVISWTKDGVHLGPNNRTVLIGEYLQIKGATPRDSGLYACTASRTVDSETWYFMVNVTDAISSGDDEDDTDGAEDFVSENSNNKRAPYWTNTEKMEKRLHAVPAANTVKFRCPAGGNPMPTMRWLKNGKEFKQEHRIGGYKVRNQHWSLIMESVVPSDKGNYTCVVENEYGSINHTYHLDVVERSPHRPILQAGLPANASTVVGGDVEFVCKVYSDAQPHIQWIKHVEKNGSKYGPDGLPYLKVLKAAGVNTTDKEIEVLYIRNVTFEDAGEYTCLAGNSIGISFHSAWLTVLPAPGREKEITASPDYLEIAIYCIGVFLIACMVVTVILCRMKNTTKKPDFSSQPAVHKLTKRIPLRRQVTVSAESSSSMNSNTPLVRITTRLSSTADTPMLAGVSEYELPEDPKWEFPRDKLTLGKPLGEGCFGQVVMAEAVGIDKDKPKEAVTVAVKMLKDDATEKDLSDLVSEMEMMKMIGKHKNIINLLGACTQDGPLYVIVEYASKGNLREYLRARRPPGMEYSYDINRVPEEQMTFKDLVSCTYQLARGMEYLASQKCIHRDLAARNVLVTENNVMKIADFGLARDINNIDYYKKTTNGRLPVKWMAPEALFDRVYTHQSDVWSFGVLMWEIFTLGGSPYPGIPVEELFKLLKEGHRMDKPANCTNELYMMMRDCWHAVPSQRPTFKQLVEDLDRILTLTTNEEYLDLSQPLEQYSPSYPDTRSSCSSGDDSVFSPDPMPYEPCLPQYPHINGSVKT

IC50 [nM]	SMILES
≤ 100	C=CC(=O)N1C[C@@H](n2cc(C#Cc3c(F)cc4c(ncn4C)c3F)c3c(N)ncnc32)C[C@@H]1COC [Example 61, 1-[(2R,4S)-4-[4-Amino-5-[2-(4,6-difluoro-1-methyl-1,3-benzodiazol-5-yl)ethynyl]pyrrolo[2,3-d]pyrimidin-7-yl]-2-(methoxymethyl)pyrrolidin-1-yl]prop-2-en-1-one]
≤ 100	C=CC(=O)N1C[C@@H](n2nc(C#Cc3cc4ncn(C)c4cc3F)c3c(N)ncnc32)C[C@@H]1COC [Example 62, 1-[(2R,4S)-4-[4-Amino-3-[2-(6-fluoro-1-methyl-1,3-benzodiazol-5-yl)ethynyl]pyrazolo[3,4-d]pyrimidin-1-yl]-2-(methoxymethyl)pyrrolidin-1-yl]prop-2-en-1-one]
≤ 100	C=CC(=O)N1C[C@@H](n2cc(C#Cc3cc4ncn(C)c4cc3F)c3c(N)ncnc32)C[C@@H]1COC [Example 63, 1-[(2R,4S)-4-[4-Amino-5-[2-(6-fluoro-1-methyl-1,3-benzodiazol-5-yl)ethynyl]pyrrolo[2,3-d]pyrimidin-7-yl]-2-(methoxymethyl)pyrrolidin-1-yl]prop-2-en-1-one]
≤ 100	C=CC(=O)N1C[C@@H](n2nc(C#Cc3c(F)cc4c(ncn4C(F)F)c3F)c3c(N)ncnc32)C[C@@H]1COC [Example 64, 1-[(2R,4S)-4-(4-Amino-3-[2-[1-(difluoromethyl)-4,6-difluoro-1,3-benzodiazol-5-yl]ethynyl]pyrazolo[3,4-d]pyrimidin-1-yl)-2-(methoxymethyl)pyrrolidin-1-yl]prop-2-en-1-one]
≤ 100	C=CC(=O)N1C[C@@H](n2nc(C#Cc3c(F)cc4c(ncn4C(F)F)c3F)c3c(N)nccc32)C[C@@H]1COC [Example 65, 1-[(2R,4S)-4-(4-Amino-3-[2-[1-(difluoromethyl)-4,6-difluoro-1,3-benzodiazol-5-yl]ethynyl]pyrazolo[4,3-c]pyridin-1-yl)-2-(methoxymethyl)pyrrolidin-1-yl]prop-2-en-1-one]
≤ 100	C=CC(=O)N1C[C@@H](n2cc(C#Cc3ccc4c(c3)ncn4C)c3c(N)ncnc32)C[C@@H]1COC(F)(F)F [Example 66, 1-[(2R,4S)-4-[4-Amino-5-[2-(1-methyl-1,3-benzodiazol-5-yl)ethynyl]pyrrolo[2,3-d]pyrimidin-7-yl]-2-[(trifluoromethoxy)methyl]pyrrolidin-1-yl]prop-2-en-1-one]
≤ 100	C=CC(=O)N1C[C@@H](n2cc(C#Cc3cc4ncn(C)c4cc3F)c3c(N)ncnc32)C[C@@H]1COC(F)(F)F [Example 67, 1-((2R,4S)-4-(4-Amino-5-((6-fluoro-1-methyl-1H-benzo[d]imidazol-5-yl)ethynyl)-7H-pyrrolo[2,3-d]pyrimidin-7-yl)-2-((trifluoromethoxy)methyl)pyrrolidin-1-yl)prop-2-en-1-one]
≤ 100	C=CC(=O)N1C[C@@H](n2cc(C#Cc3c(F)cc4c(ncn4C)c3F)c3c(N)ncnc32)C[C@@H]1COC(F)(F)F [Example 68, 1-((2R,4S)-4-(4-Amino-5-((4,6-difluoro-1-methyl-1H-benzo[d]imidazol-5-yl)ethynyl)-7H-pyrrolo[2,3-d]pyrimidin-7-yl)-2-((trifluoromethoxy)methyl)pyrrolidin-1-yl)prop-2-en-1-one]
≤ 100	C=CC(=O)N1C[C@@H](n2cc(C#Cc3c(F)cc4c(ncn4C(F)F)c3F)c3c(N)ncnc32)C[C@@H]1COC [Example 69, 1-[(2R,4S)-4-(4-Amino-5-[2-[1-(difluoromethyl)-4,6-difluoro-1,3-benzodiazol-5-yl]ethynyl]pyrrolo[2,3-d]pyrimidin-7-yl)-2-(methoxymethyl)pyrrolidin-1-yl]prop-2-en-1-one]
≤ 100	C=CC(=O)N1C[C@@H](n2nc(C#Cc3c(F)cc4c(ncn4CC)c3F)c3c(N)ncnc32)C[C@@H]1COC(F)(F)F [Example 70, 1-((2R,4S)-4-(4-Amino-3-((1-ethyl-4,6-difluoro-1H-benzo[d]imidazol-5-yl)ethynyl)-1H-pyrazolo[3,4-d]pyrimidin-1-yl)-2-((trifluoromethoxy)methyl)pyrrolidin-1-yl)prop-2-en-1-one]
≤ 100	C=CC(=O)N1C[C@@H](n2nc(C#Cc3cc4ncn(CC)c4cc3F)c3c(N)ncnc32)C[C@@H]1COC(F)(F)F [Example 71, 1-[(2R,4S)-4-[4-amino-3-[2-(1-ethyl-6-fluoro-1,3-benzodiazol-5-yl)ethynyl]pyrazolo[3,4-d]pyrimidin-1-yl]-2-[(trifluoromethoxy)methyl]pyrrolidin-1-yl]prop-2-en-1-one]
≤ 100	C=CC(=O)N1C[C@@H](n2nc(C#Cc3c(F)cc4c(ncn4C4CC4)c3F)c3c(N)ncnc32)C[C@@H]1COC [Example 72, 1-[(2R,4S)-4-[4-Amino-3-[2-(1-cyclopropyl-4,6-difluoro-1,3-benzodiazol-5-yl)ethynyl]pyrazolo[3,4-d]pyrimidin-1-yl]-2-(methoxymethyl)pyrrolidin-1-yl]prop-2-en-1-one]
≤ 100	C=CC(=O)N1C[C@@H](n2nc(C#Cc3c(F)cc4c(ncn4C4CC4)c3F)c3c(N)nccc32)C[C@@H]1COC [Example 73, 1-[(2R,4S)-4-[4-Amino-3-[2-(1-cyclopropyl-4,6-difluoro-1,3-benzodiazol-5-yl)ethynyl]pyrazolo[4,3-c]pyridin-1-yl]-2-(methoxymethyl)pyrrolidin-1-yl]prop-2-en-1-one; formic acid]
≤ 100	C=CC(=O)N1C[C@@H](n2nc(C#Cc3cc4ncn(C)c4cc3F)c3c(N)nccc32)C[C@@H]1COC [Example 74, 1-[(2R,4S)-4-[4-Amino-3-[2-(6-fluoro-1-methyl-1,3-benzodiazol-5-yl)ethynyl]pyrazolo[4,3-c]pyridin-1-yl]-2-(methoxymethyl)pyrrolidin-1-yl]prop-2-en-1-one]
≤ 100	C=CC(=O)N1C[C@@H](n2cc(C#Cc3c(F)cc4c(ncn4C4CC4)c3F)c3c(N)ncnc32)C[C@@H]1COC [Example 75, 1-[(2R,4S)-4-[4-Amino-5-[2-(1-cyclopropyl-4,6-difluoro-1,3-benzodiazol-5-yl)ethynyl]pyrrolo[2,3-d]pyrimidin-7-yl]-2-(methoxymethyl)pyrrolidin-1-yl]prop-2-en-1-one]
≤ 100	C=CC(=O)N1C[C@@H](n2nc(C#Cc3c(F)cc4c(ncn4C4CC4)c3F)c3c(N)ncnc32)C[C@@H]1COC(F)(F)F [Example 76, 1-[(2R,4S)-4-[4-Amino-3-[2-(1-cyclopropyl-4,6-difluoro-1,3-benzodiazol-5-yl)ethynyl]pyrazolo[3,4-d]pyrimidin-1-yl]-2-[(trifluoromethoxy)methyl]pyrrolidin-1-yl]prop-2-en-1-one]
≤ 100	C=CC(=O)N1C[C@@H](n2nc(C#Cc3cc4ncn(CC)c4cc3F)c3c(N)ncnc32)C[C@@H]1COC [Example 77, 1-[(2R,4S)-4-[4-Amino-3-[2-(1-ethyl-6-fluoro-1,3-benzodiazol-5-yl)ethynyl]pyrazolo[3,4-d]pyrimidin-1-yl]-2-(methoxymethyl)pyrrolidin-1-yl]prop-2-en-1-one]
≤ 100	C=CC(=O)N1C[C@@H](n2nc(C#Cc3cc4ncn(C5CC5)c4cc3F)c3c(N)ncnc32)C[C@@H]1COC(F)(F)F [Example 78, 1-((2R,4S)-4-(4-Amino-3-((1-cyclopropyl-6-fluoro-1H-benzo[d]imidazol-5-yl)ethynyl)-1H-pyrazolo[3,4-d]pyrimidin-1-yl)-2-((trifluoromethoxy)methyl)pyrrolidin-1-yl)prop-2-en-1-one]
